Literature values, collected in patent publication US6767895B2 (priority 2000, dated 2004).

Settings: in vivo; cited from earlier work

In the case of contulakin-G, the “potency in inhibiting pain relative to neurotensin” value is given as “significantly more potent than neurotensin”.
